Assay results: PubChem BioAssay AID2060889 (Molecular Pharmacology Branch, DTP, NCI, 2025)

System: LG0567-F671-PDC complex spheroids viability
Test: Anticancer human tumor LG0567-F671-PDC patient-derived lung adenocarcinoma cell line growth inhibition [RAS]
Conditions: for IC50: curve of first compound; for viability, T/C: stronger effect = lower value; active = viability on the fitted dose curve at most 10% of control; inactive = the rest
In short: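 Multi-cell-type spheroids: tumor cells plus HUVEC endothelial cells and mesenchymal stem cells. RAS-pathway inhibitors were combined with targeted agents, each dosed in half-log steps down from clinical Cmax, or from 10 microM when Cmax was unknown.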
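Note: spheroids exposed to compound for seven days before readout.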
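Throughout, for IC50: luminescence signal used as a proxy for viable cells.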

CC1(C)CCC(Nc2ncc(C(F)(F)F)c(-c3c[nH]c4c(P(C)(C)=O)c(C#N)ccc34)n2)CN1 (centres undefined) + CCn1c(-c2cc(N3CCN(C)CC3)cnc2C(C)OC)c2c3cc(ccc31)-c1csc(n1)CC(NC(=O)C1CC1C)C(=O)N1CCCC(N1)C(=O)OCC(C)(C)C2
< 0.949 nM: IC50 (second compound 0.000949 µM) | IC50 (second compound 0.003 µM) | IC50 (second compound 0.00949 µM) | IC50 (second compound 0.03 µM) | IC50 (second compound 0.0949 µM) | IC50 (second compound 0.3 µM)
inactive: viability, T/C (second compound 0.000949 µM, first compound 0.000949 µM) 18.6% | viability, T/C (second compound 0.000949 µM, first compound 0.003 µM) 17.4% | viability, T/C (second compound 0.000949 µM, first compound 0.00949 µM) 15.6% | viability, T/C (second compound 0.000949 µM, first compound 0.03 µM) 18.6% | viability, T/C (second compound 0.000949 µM, first compound 0.0949 µM) 19.4% | viability, T/C (second compound 0.000949 µM, first compound 0.3 µM) 20.3%
active: viability, T/C (second compound 0.003 µM, first compound 0.000949 µM) 9.04% | viability, T/C (second compound 0.003 µM, first compound 0.003 µM) 8.93% | viability, T/C (second compound 0.003 µM, first compound 0.00949 µM) 9.61% | viability, T/C (second compound 0.003 µM, first compound 0.03 µM) 8.68% | viability, T/C (second compound 0.003 µM, first compound 0.0949 µM) 10.7% | viability, T/C (second compound 0.003 µM, first compound 0.3 µM) 11.1% | viability, T/C (second compound 0.00949 µM, first compound 0.000949 µM) 5.65% | viability, T/C (second compound 0.00949 µM, first compound 0.003 µM) 5.79% | viability, T/C (second compound 0.00949 µM, first compound 0.00949 µM) 5.79% | viability, T/C (second compound 0.00949 µM, first compound 0.03 µM) 6.44% | viability, T/C (second compound 0.00949 µM, first compound 0.0949 µM) 6.98% | viability, T/C (second compound 0.00949 µM, first compound 0.3 µM) 7.15% | viability, T/C (second compound 0.03 µM, first compound 0.000949 µM) 4.09% | viability, T/C (second compound 0.03 µM, first compound 0.003 µM) 4.19% | viability, T/C (second compound 0.03 µM, first compound 0.00949 µM) 4.86% | viability, T/C (second compound 0.03 µM, first compound 0.03 µM) 4.81% | viability, T/C (second compound 0.03 µM, first compound 0.0949 µM) 5.36% | viability, T/C (second compound 0.03 µM, first compound 0.3 µM) 5.18% | viability, T/C (second compound 0.0949 µM, first compound 0.000949 µM) 2.85% | viability, T/C (second compound 0.0949 µM, first compound 0.003 µM) 3.65% | viability, T/C (second compound 0.0949 µM, first compound 0.00949 µM) 4.21% | viability, T/C (second compound 0.0949 µM, first compound 0.03 µM) 4.25% | viability, T/C (second compound 0.0949 µM, first compound 0.0949 µM) 4.38% | viability, T/C (second compound 0.0949 µM, first compound 0.3 µM) 4.66% | viability, T/C (second compound 0.3 µM, first compound 0.000949 µM) 2.87% | viability, T/C (second compound 0.3 µM, first compound 0.003 µM) 2.91% | viability, T/C (second compound 0.3 µM, first compound 0.00949 µM) 3.44% | viability, T/C (second compound 0.3 µM, first compound 0.03 µM) 3.64% | viability, T/C (second compound 0.3 µM, first compound 0.0949 µM) 4.02% | viability, T/C (second compound 0.3 µM, first compound 0.3 µM) 3.88%

Nc1ccn(C2OC(CO)C(O)C2(F)F)c(=O)n1 (centres undefined) + CCn1c(-c2cc(N3CCN(C)CC3)cnc2C(C)OC)c2c3cc(ccc31)-c1csc(n1)CC(NC(=O)C1CC1C)C(=O)N1CCCC(N1)C(=O)OCC(C)(C)C2
inactive: viability, T/C (second compound 0.000949 µM, first compound 0.00316 µM) 23.8% | viability, T/C (second compound 0.000949 µM, first compound 0.01 µM) 22.4% | viability, T/C (second compound 0.000949 µM, first compound 0.0316 µM) 22.1% | viability, T/C (second compound 0.000949 µM, first compound 0.1 µM) 22.6% | viability, T/C (second compound 0.000949 µM, first compound 0.316 µM) 20.7% | viability, T/C (second compound 0.000949 µM, first compound 1 µM) 22% | viability, T/C (second compound 0.003 µM, first compound 0.00316 µM) 11% | viability, T/C (second compound 0.003 µM, first compound 0.01 µM) 10.7% | viability, T/C (second compound 0.003 µM, first compound 0.0316 µM) 10.6% | viability, T/C (second compound 0.003 µM, first compound 0.1 µM) 8.86% | viability, T/C (second compound 0.003 µM, first compound 0.316 µM) 11.5% | viability, T/C (second compound 0.003 µM, first compound 1 µM) 12.4%
active: viability, T/C (second compound 0.00949 µM, first compound 0.00316 µM) 6.32% | viability, T/C (second compound 0.00949 µM, first compound 0.01 µM) 6.32% | viability, T/C (second compound 0.00949 µM, first compound 0.0316 µM) 6.59% | viability, T/C (second compound 0.00949 µM, first compound 0.1 µM) 6.78% | viability, T/C (second compound 0.00949 µM, first compound 0.316 µM) 6.01% | viability, T/C (second compound 0.00949 µM, first compound 1 µM) 7.27% | viability, T/C (second compound 0.03 µM, first compound 0.00316 µM) 6.63% | viability, T/C (second compound 0.03 µM, first compound 0.01 µM) 4.5% | viability, T/C (second compound 0.03 µM, first compound 0.0316 µM) 4.58% | viability, T/C (second compound 0.03 µM, first compound 0.1 µM) 4.82% | viability, T/C (second compound 0.03 µM, first compound 0.316 µM) 5.13% | viability, T/C (second compound 0.03 µM, first compound 1 µM) 5.29% | viability, T/C (second compound 0.0949 µM, first compound 0.00316 µM) 3.22% | viability, T/C (second compound 0.0949 µM, first compound 0.01 µM) 3.54% | viability, T/C (second compound 0.0949 µM, first compound 0.0316 µM) 3.82% | viability, T/C (second compound 0.0949 µM, first compound 0.1 µM) 3.99% | viability, T/C (second compound 0.0949 µM, first compound 0.316 µM) 4.28% | viability, T/C (second compound 0.0949 µM, first compound 1 µM) 5.17% | viability, T/C (second compound 0.3 µM, first compound 0.00316 µM) 2.59% | viability, T/C (second compound 0.3 µM, first compound 0.01 µM) 2.74% | viability, T/C (second compound 0.3 µM, first compound 0.0316 µM) 3.25% | viability, T/C (second compound 0.3 µM, first compound 0.1 µM) 3.47% | viability, T/C (second compound 0.3 µM, first compound 0.316 µM) 4.08% | viability, T/C (second compound 0.3 µM, first compound 1 µM) 3.48%
< 3.16 nM: IC50 (second compound 0.000949 µM) | IC50 (second compound 0.003 µM) | IC50 (second compound 0.00949 µM) | IC50 (second compound 0.03 µM) | IC50 (second compound 0.0949 µM) | IC50 (second compound 0.3 µM)
